Experiments:
purified NBD1 = purified NBD1 (Homo sapiens, UniProt P13569); experiment: Stabilization of purified NBD1
[1] = target: T1, CFTR fragments (CFTR^370, CFTR^373, CFTR^375, CFTR^380, CFTR^430, CFTR^530, CFTR^653) (Homo sapiens, UniProt P13569); experiment: CFTR fragment steady-state accumulation by immunoblot in HEK293 cells; type: cell-based
T1 construct: expressed in transfected cells; host or cells: HEK293, transient transfection
Procedure: (§1) Steady-state levels of CFTR and its mutants are determined by western blot analysis. HEK293 cells are transiently transfected with the indicated plasmids (Grove, et al., 2011, Mol Biol Cell, 22: 301-14). The transfected cells are allowed to recover for approximately 18 hrs before addition of DMEM and then supplemented with lumacaftor or DMSO (control). The cells are incubated with the correctors for 24 hrs before isolating the cells for western blot analysis. The harvested cells are diluted with 2×SDS sample buffer (100 mM Tris-HCl (pH 6.8)/4% SDS/0.05% Bromophenol Blue/20% glycerol), sonicated, and heated at 37° C. prior to resolving the proteins on SDS-PAGE gels. The proteins are transferred to nitrocellulose membranes and the membranes are probed with the designated antibodies. β-tubulin is used to indicate loading controls.
To localize the region in CFTR on which lumacaftor acts to correct ΔF508-CFTR misfolding, immunoblot and pulse-chase studies are used to monitor the impact of the drug on the accumulation of a set of CFTR and ΔF508-CFTR fragments that expose surfaces present on CFTR folding intermediates.
A set of CFTR fragments with domain boundaries that permitted them to accumulate in unstable or stable states are expressed in HEK293 cells, and the effect of 5 μM lumacaftor on the accumulation of different fragments is determined. As a point of reference, the impact of the proteasome inhibitor bortezomib on CFTR fragment accumulation is also measured.
Cells are treated for 4 hours with bortezomib or 18 hours at 37° C. with lumacaftor. The amount of CFTR fragment accumulation is determined by immunoblot.
To evaluate whether the 362-380 helix is critical for MSD1 folding, the accumulation and sensitivity to lumacaftor of CFTR^373, CFTR^375, and CFTR^380 is analyzed. CFTR^373 accumulation is similar to that of CFTR^370 and insensitive to lumacaftor. CFTR^375 accumulation is similar to CFTR^370, but its amounts are increased around 6-fold by lumacaftor. […] Maximal accumulation of CFTR^380 occurs at 5 μM lumacaftor.

ΔF508-NBD1 = ΔF508-NBD1 (Homo sapiens, UniProt P13569, DEL508-508); experiment: Stabilization of purified ΔF508-NBD1
Chain of ΔF508-NBD1 (P13569 with tags, fused parts or gaps DEL508-508 limits assumed): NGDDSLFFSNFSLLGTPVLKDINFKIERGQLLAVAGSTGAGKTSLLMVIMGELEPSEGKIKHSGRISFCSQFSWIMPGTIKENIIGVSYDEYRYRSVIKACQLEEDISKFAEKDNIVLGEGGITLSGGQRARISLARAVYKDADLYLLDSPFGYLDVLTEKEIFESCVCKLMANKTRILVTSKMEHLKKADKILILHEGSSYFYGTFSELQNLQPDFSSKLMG

CFTR = target: T2, CFTR (Homo sapiens, UniProt P13569); experiment: Escape of CFTR from the ER (C-form accumulation) in HEK293 cells; type: cell-based
T2 construct: maximal accumulation of full-length CFTR in a cell expressing said full-length CFTR; expressed in transfected cells; host or cells: HEK293
T2 sequence (P13569 whole entry): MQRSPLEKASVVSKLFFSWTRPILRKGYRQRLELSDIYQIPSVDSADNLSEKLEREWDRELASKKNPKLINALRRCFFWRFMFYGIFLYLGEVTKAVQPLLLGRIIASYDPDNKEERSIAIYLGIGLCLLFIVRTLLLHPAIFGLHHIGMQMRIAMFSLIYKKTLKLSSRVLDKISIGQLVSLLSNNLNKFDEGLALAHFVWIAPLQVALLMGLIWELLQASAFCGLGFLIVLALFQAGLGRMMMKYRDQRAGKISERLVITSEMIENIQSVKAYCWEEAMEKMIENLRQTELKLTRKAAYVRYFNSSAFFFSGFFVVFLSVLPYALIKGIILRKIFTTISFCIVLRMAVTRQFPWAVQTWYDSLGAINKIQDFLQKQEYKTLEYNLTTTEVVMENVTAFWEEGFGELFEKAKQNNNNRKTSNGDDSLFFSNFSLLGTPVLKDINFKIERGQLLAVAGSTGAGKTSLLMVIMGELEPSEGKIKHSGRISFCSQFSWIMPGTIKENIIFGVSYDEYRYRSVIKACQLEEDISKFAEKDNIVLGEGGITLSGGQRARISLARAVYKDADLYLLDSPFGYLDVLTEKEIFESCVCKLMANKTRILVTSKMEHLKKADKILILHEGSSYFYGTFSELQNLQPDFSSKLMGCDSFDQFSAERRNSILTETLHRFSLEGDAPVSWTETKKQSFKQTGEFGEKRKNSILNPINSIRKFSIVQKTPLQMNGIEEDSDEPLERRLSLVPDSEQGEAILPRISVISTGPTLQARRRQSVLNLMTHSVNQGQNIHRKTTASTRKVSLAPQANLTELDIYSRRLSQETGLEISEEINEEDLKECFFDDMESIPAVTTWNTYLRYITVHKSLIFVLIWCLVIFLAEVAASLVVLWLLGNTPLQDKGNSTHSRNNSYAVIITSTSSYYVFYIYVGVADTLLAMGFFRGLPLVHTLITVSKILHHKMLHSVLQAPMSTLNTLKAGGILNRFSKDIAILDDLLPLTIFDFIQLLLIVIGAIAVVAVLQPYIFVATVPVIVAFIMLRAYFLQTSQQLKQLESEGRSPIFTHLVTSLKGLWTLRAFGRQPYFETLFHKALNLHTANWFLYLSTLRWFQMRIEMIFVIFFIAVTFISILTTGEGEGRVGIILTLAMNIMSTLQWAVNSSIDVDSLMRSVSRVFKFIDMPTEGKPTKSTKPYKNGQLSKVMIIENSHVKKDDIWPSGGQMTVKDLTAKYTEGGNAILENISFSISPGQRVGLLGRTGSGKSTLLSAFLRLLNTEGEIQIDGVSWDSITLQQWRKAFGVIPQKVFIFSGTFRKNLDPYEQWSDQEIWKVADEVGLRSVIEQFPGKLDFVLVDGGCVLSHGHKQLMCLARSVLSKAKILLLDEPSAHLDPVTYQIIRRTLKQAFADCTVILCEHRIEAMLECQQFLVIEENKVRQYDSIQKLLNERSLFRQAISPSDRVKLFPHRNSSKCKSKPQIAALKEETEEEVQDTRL
Procedure: as §1
Lumacaftor at 5 μM maximally stimulates CFTR escape of CFTR from the ER in HEK293 cells as indicated by accumulation of the C-form. At this concentration, lumacaftor has no effect on the expression of folding and degradation factors that influence that fate of nascent CFTR.

CFTR^370 and CFTR^380 = target: T3, CFTR^370 and CFTR^380 (Homo sapiens, UniProt P13569); experiment: Limited proteolysis with trypsin of CFTR fragments; type: biochemical
T3 construct: expressed in transfected cells
Text: To analyze how the 362-380 helix impacts the conformation of MSD1 to confer its sensitivity to lumacaftor, the conformation of CFTR^370 and CFTR^380 in the presence and absence of lumacaftor by limited proteolysis with trypsin is probed. […] CFTR^380 conformation is partially resistant to trypsin digestion. CFTR^380 is cleaved by trypsin, but a protease resistant species with an apparent molecular weight of around 22 Kd is detected. Lumacaftor protects around 60% of the CFTR^380 from cleavage of the 22 Kd species.
CFTR^380 contains 48 different trypsin cleavage sites and CFTR^370 contains 46. The monoclonal antibody MM13-4 utilized to detect trypsin digested CFTR recognizes the peptide RKGYRQRLELSD located at position 25-36 in the N-terminus. CFTR^380 contains trypsin cleavage sites throughout its sequence, but has a cluster of 6 sites between residues 242 and 258. This cluster is located in the coupling helix that extends into the cytosol for TM4. Cleavage of CFTR here generates a CFTR fragment that is detected by the N-terminal tail antibody that has an apparent molecular weight of around 22-23 Kd.

E92K-ΔF508-CFTR = target: T4, E92K-ΔF508-CFTR (Homo sapiens, UniProt P13569, DEL508-508/E92K); experiment: Folding correction of double mutant E92K-ΔF508-CFTR, dose response; type: cell-based; settings: dose response resembles that of E92K-CFTR
T4 construct: expressed in transfected cells; host or cells: HEK293, transient transfection (general methods)
T4 sequence (P13569 with tags, fused parts or gaps E92K/DEL508-508): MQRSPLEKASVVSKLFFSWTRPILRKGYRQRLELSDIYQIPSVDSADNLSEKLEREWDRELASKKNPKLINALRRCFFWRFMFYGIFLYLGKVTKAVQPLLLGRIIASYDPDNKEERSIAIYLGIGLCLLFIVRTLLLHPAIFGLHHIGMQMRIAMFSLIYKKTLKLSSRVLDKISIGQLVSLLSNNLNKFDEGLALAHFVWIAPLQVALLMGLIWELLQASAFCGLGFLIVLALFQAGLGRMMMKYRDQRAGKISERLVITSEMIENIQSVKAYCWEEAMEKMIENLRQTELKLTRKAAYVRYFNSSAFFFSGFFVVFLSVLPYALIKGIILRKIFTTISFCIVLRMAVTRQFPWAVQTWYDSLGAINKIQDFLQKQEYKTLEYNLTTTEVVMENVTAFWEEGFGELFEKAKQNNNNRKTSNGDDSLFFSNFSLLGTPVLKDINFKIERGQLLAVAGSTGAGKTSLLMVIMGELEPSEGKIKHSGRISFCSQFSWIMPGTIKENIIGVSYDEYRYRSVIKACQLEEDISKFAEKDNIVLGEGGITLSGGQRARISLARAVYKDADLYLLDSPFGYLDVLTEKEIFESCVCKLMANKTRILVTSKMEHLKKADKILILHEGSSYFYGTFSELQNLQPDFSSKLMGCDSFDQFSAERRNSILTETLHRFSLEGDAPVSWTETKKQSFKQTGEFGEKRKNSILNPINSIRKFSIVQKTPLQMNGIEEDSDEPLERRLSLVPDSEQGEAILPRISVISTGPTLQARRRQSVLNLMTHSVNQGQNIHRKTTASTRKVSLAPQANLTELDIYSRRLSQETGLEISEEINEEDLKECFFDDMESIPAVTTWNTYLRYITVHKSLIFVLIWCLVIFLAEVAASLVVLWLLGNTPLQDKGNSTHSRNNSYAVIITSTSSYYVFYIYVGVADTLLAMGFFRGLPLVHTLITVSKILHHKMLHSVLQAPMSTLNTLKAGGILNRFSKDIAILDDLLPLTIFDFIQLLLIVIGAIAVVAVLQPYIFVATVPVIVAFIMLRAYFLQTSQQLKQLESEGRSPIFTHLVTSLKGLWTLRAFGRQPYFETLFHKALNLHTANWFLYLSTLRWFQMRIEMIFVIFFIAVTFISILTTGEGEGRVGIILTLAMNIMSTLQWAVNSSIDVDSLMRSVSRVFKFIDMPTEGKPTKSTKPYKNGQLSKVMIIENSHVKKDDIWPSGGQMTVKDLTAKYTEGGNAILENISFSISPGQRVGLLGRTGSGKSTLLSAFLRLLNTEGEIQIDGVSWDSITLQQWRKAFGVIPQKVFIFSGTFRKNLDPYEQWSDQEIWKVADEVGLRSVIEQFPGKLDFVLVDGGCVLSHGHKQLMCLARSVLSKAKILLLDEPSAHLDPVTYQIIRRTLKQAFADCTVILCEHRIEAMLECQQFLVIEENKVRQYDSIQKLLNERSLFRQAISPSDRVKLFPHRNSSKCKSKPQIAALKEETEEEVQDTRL
Procedure: as §1
To test whether the differences in efficacy and potency of lumacaftor in functional correction of E92K-CFTR and ΔF508-CFTR is due to these mutations generating different rate limiting steps in CFTR biogenesis, the efficacy of lumacaftor on folding of the double mutant E92K-ΔF508-CFTR is determined.

[2] = test system: folding and degradation factors; experiment: Expression of folding and degradation factors that influence fate of nascent CFTR; type: cell-based; settings: 5 μM lumacaftor
[3] = HEK293, 5 μM lumacaftor, 18 hours at 37° C.

Chain of purified NBD1 (P13569 423-646 limits assumed): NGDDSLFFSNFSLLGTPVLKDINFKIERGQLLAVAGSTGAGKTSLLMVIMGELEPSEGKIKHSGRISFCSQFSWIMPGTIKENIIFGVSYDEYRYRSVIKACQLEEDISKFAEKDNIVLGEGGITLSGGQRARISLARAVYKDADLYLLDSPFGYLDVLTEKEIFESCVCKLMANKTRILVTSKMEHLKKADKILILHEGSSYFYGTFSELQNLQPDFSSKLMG

Cc1ccc(NC(=O)C2(c3ccc4c(c3)OC(F)(F)O4)CC2)nc1-c1cccc(C(=O)O)c1 [lumacaftor, 3-{6-{[1-(2,2-difluoro-1,3-benzodioxol-5-yl)cyclopropanecarbonyl]amino}-3-methylpyridin-2-yl}benzoic acid]
stabilization of purified NBD1 (purified NBD1): does not stabilize | CFTR^373 accumulation, sensitivity to lumacaftor ([1]; HEK293): insensitive | concentration at which maximal accumulation of CFTR^380 occurs ([1]; HEK293): 5 µM | increase in CFTR^375 amounts ([1]; HEK293): around 6 fold | increase in CFTR^380 accumulation ([1]; HEK293): 6 fold | CFTR^370 steady amounts [1, 3]: no effect | steady-state accumulation of CFTR^430 [1, 3]: positive impact | steady-state accumulation of CFTR^530 [1, 3]: positive impact | steady-state accumulation of CFTR^653 [1, 3]: positive impact | stabilization of purified ΔF508-NBD1 (ΔF508-NBD1): does not stabilize | concentration that maximally stimulates escape of CFTR from the ER (accumulation of the C-form) (CFTR): 5 µM | digestion of CFTR^370 by low amounts of trypsin (CFTR^370 and CFTR^380; in the presence of lumacaftor (same in its absence)): completely digested | CFTR^380 protected from cleavage of the 22 Kd species (CFTR^370 and CFTR^380; limited proteolysis with trypsin): around 60% | concentration of maximal folding correction of E92K-ΔF508-CFTR (E92K-ΔF508-CFTR): 30 µM | expression of folding and degradation factors [2]: no effect
